Article PMC11387447 (Pharmacological Reports, 2024)
Read-outs that look alike come from different tables or passages of the source. Marks after values point to notes of the source that are not given here.

Assays:
[1] = IIIATO group: single oral ATO 20 mg/kg b.w. alone, rat plasma, n = 8; median (quartiles) or mean ± SD (CV %); adopted from previous study ref 12; cited from earlier work
[2] = Plasma pharmacokinetics of REG, M-2 and M-5 in rats after single oral REG with or without ATO (UPLC-MS/MS, non-compartmental analysis); type: in vivo, male Wistar rats; conditions: for increase of AUC0–t / increase of AUC0–∞: IREG+ATO group compared to control IIREG group; for Cmax as share of the REG Cmax: single dose of REG 20 mg/kg; for AUC0–t / AUC0–∞ / Cmax / AUC(0-inf) / AUC(0-t): rat plasma; for AUC0–t / AUC0–∞ / Cmax / Tmax / Vd/F / AUC(0-inf) / AUC(0-t): n = 8
Method: Nonetheless, no other experimental conditions were changed.
Next, 20 μL of acetonitrile was added. The samples were mixed for 10 min and then centrifuged for 10 min at 8500 rpm. 50 μL of the resulting supernatant was filtered and used for further analysis. Each sample was analyzed twice, and the arithmetic mean was determined from the surface areas obtained in the chromatogram.
The LC–MS/MS system consisted of a Xevo TQ-S-micro triple quadrupole mass spectrometer coupled with a UPLC Acquity I-class PLUS (Waters Corporation, Milford, MA, USA), and the Waters Software MassLynx V4.2 SCN1017 Software. A Cortecs UPLC C18 column (2.1 × 50 mm, 1.6 μm) was equipped with an Acquity UPLC BEH C18 VanGuard pre-column (2.1 × 5 mm, 3/Pk, Waters Corporation). The injection volume was 5 μL. The temperature of the autosampler was 4 °C, and the temperature of the column was 40 °C. Mobile phase A was composed of 0.1% aqueous formic acid solution (v/v), and phase B of acetonitrile: methanol and 0.1% formic acid aqueous solution at 1:3 (v/v) ratio. The total run time was 5 min. […] Positive electrospray ionization (ESI) multiple reaction monitoring (MRM) experiments were conducted for sample analysis. The Xevo TQ-S Micro Mass spectrometer (Waters) was run in the positive ion mode, and configured in the multiple reaction monitoring mode, for the detection of REG, REG-N-oxide (M-2), N-desmethyl-REG-N-oxide (M-5), and isotope-labelled REG-d3.
The data were collected and processed using the MassLynx Software (V 4.2 SCN 1017, Waters). The following settings were used for the Xevo TQ-S Micro Mass spectrometer: source temperature—150 °C, desolvation temperature—600 °C, nitrogen gas flow—900 L/h, capillary voltage 3.6 kV. Transition ion pairs (parent m/z—daughter m/z) were identified, using the MRM mode, for the following compounds: 482.95–270.08 and 288.02 for REG; 499.00–304.01, 252.16, and 229.00 for M-2; 485.94–202.02 and 228.98 for M-5; and 486.02–273.07 for REG-d3 as an IS.

[3] = parameters: method as in earlier work; conditions: mice, repeated oral 10 mg/kg of REG for 5 consecutive days; ref 27 (Zopf et al.); cited from earlier work
[4] = IIREG group: REG 20 mg/kg b.w. alone, median (quartiles)
[5] = IREG+ATO group: REG 20 mg/kg + ATO 20 mg/kg b.w., median (quartiles)
[6] = metabolite of REG, IIREG group: single oral REG 20 mg/kg b.w. alone, median (quartiles)
[7] = metabolite of REG, IREG+ATO group: single oral REG 20 mg/kg + ATO 20 mg/kg b.w., median (quartiles)
[8] = in the presence of ATO (IREG+ATO vs IIREG)
[9] = male, Wistar, rat, plasma, po, 20 mg/kg, IIREG group: single oral REG 20 mg/kg b.w. alone, median (quartiles)
[10] = male, Wistar, rat, plasma, po, 20 mg/kg, IREG+ATO group: single oral REG 20 mg/kg + ATO 20 mg/kg b.w., median (quartiles)

CC(C)c1c(C(=O)Nc2ccccc2O)c(-c2ccccc2)c(-c2ccc(F)cc2)n1CC[C@@H](O)C[C@@H](O)CC(=O)O [2-OH ATO, orthohydroxy atorvastatin]
AUC0–t [1]: 544.83 (448.90; 682.46) ng × h/mL
Cmax [1]: 126.09 (87.49; 276.16) ng/mL

CC(C)c1c(C(=O)Nc2ccc(O)cc2)c(-c2ccccc2)c(-c2ccc(F)cc2)n1CC[C@@H](O)C[C@@H](O)CC(=O)O [4-OH ATO, parahydroxy atorvastatin]
AUC0–∞ [1]: 18.32 (12.89; 24.73) ng × h/mL

CNC(=O)c1cc(Oc2ccc(NC(=O)Nc3ccc(Cl)c(C(F)(F)F)c3)c(F)c2)cc[n+]1[O-] [M-2, regorafenib N-oxide]
M-2/REG ratio AUC0–t [2, 4]: 0.26 (0.20; 0.31)
M-2/REG ratio AUC0–∞ [2, 4]: 0.30 (0.26; 0.38)
M-2/REG ratio Cmax [2, 4]: 0.18 (0.13; 0.28)
increase of AUC0–t [2]: 4.5 fold
increase of AUC0–∞ [2]: 3.6 fold
Cmax as share of the REG Cmax ([2]; IREG+ATO group): 24.14%
M-2/REG ratio AUC0–t [2, 5]: 0.31 (0.27; 0.45)
M-2/REG ratio Cmax [2, 5]: 0.27 (0.20; 0.33)
Gmean ratio (90% CI) of AUC0–t ([2]; IREG+ATO vs IIREG): 5.47 (4.30; 6.96)*
Gmean ratio (90% CI) of AUC0–∞ ([2]; IREG+ATO vs IIREG): 4.55 (3.70; 5.60)*
Gmean ratio (90% CI) of Cmax ([2]; IREG+ATO vs IIREG): 5.03 (3.82; 6.62)*
Gmean ratio (90% CI) of M-2/REG ratio AUC0–t ([2]; IREG+ATO vs IIREG): 1.30 (0.96; 1.76)*
Gmean ratio (90% CI) of M-2/REG ratio AUC0–∞ ([2]; IREG+ATO vs IIREG): 1.08 (0.81; 1.46)*
Gmean ratio (90% CI) of M-2/REG ratio Cmax ([2]; IREG+ATO vs IIREG): 1.35 (0.60; 3.07)*
Cmax as share of the REG Cmax ([2]; REG group): 15.28%
AUC0–t [2, 6]: 9548.40 (8488.70; 11,642.31) ng × h/mL
AUC0–∞ [2, 6]: 10,947.48 (9718.99; 12,781.14) ng × h/mL
Cmax [2, 6]: 302.15 (249.90; 395.95) ng/mL
AUC0–t [2, 7]: 52,182.11 (40,840.43; 64,989.90) ng × h/mL
AUC0–∞ [2, 7]: 52,438.36 (41,030.58; 65,561.89) ng × h/mL
Cmax [2, 7]: 1647.45 (1374.65; 1994.65) ng/mL
Cmax as share of the REG Cmax [3]: 15.17%

NC(=O)c1cc(Oc2ccc(NC(=O)Nc3ccc(Cl)c(C(F)(F)F)c3)c(F)c2)cc[n+]1[O-] [M-5, N-desmethyl regorafenib N-oxide]
M-5/REG ratio Cmax [2, 4]: 0.01 (0.01; 0.02)
increase of AUC0–t [2]: 6.0 fold
increase of AUC0–∞ [2]: 6.0 fold
Cmax as share of the REG Cmax ([2]; IREG+ATO group): 2.12%
M-5/REG ratio Cmax [2, 5]: 0.02 (0.02; 0.02)
Gmean ratio (90% CI) of AUC0–t ([2]; IREG+ATO vs IIREG): 7.13 (6.13; 8.29)*
Gmean ratio (90% CI) of AUC0–∞ ([2]; IREG+ATO vs IIREG): 7.16 (6.21; 8.26)*
Gmean ratio (90% CI) of Cmax ([2]; IREG+ATO vs IIREG): 5.65 (5.06; 6.31)*
Gmean ratio (90% CI) of M-5/REG ratio AUC0–t ([2]; IREG+ATO vs IIREG): 1.70 (1.42; 2.03)
Gmean ratio (90% CI) of M-5/REG ratio AUC0–∞ ([2]; IREG+ATO vs IIREG): 1.71 (1.43; 2.03)
Gmean ratio (90% CI) of M-5/REG ratio Cmax ([2]; IREG+ATO vs IIREG): 1.52 (0.68; 3.39)*
Cmax as share of the REG Cmax ([2]; REG group): 1.17%
increase of M-5/REG ratio for AUC0–t ([2]; in the presence of ATO): 100.0%
increase of M-5/REG ratio for AUC0–∞ ([2]; in the presence of ATO): 100.0%
increase of M-5/REG ratio for Cmax ([2]; in the presence of ATO): 66.7%
AUC0–t [2, 6]: 791.48 (703.15; 884.23) ng × h/mL
AUC0–∞ [2, 6]: 833.10 (752.92; 929.13) ng × h/mL
Cmax [2, 6]: 26.90 (23.40; 28.65) ng/mL
AUC0–t [2, 7]: 5501.55 (5310.04; 5967.36) ng × h/mL
AUC0–∞ [2, 7]: 5919.80 (5556.63; 6371.62) ng × h/mL
Cmax [2, 7]: 150.05 (136.75; 155.40) ng/mL
Cmax as share of the REG Cmax [3]: 1.27%

CNC(=O)c1cc(Oc2ccc(NC(=O)Nc3ccc(Cl)c(C(F)(F)F)c3)c(F)c2)ccn1 [REG, regorafenib, reference compound]
increase of AUC0–t [2]: 3.2 fold
increase of AUC0–∞ [2]: 3.2 fold
Gmean ratio (90% CI) of AUC0–t ([2]; IREG+ATO vs IIREG): 4.20 (3.57; 4.95)*
Gmean ratio (90% CI) of AUC0–∞ ([2]; IREG+ATO vs IIREG): 4.20 (3.56; 4.94)*
Gmean ratio (90% CI) of Cl/F ([2]; IREG+ATO vs IIREG): 0.26 (0.22; 0.30)*
Gmean ratio (90% CI) of Cmax ([2]; IREG+ATO vs IIREG): 3.72 (3.20; 4.32)*
Gmean ratio (90% CI) of Vd/F ([2]; IREG+ATO vs IIREG): 0.28 (0.22; 0.37)*
Gmean ratio (90% CI) of ka ([2]; IREG+ATO vs IIREG): 1.60 (1.09; 2.37)
Gmean ratio (90% CI) of kel ([2]; IREG+ATO vs IIREG): 0.91 (0.75; 1.10)
Gmean ratio (90% CI) of t1/2 ([2]; IREG+ATO vs IIREG): 1.10 (0.91; 1.33)
Gmean ratio (90% CI) of tmax ([2]; IREG+ATO vs IIREG): 0.85 (0.63; 1.17)*
differences in tmax, ka, kel, t0.5 ([2]; IREG+ATO vs IIREG): No statistically significant differences
decrease of Cl/F [2, 8]: 72.7%
decrease of Vd/F [2, 8]: 71.7%
Tmax [2, 9]: 6 h
Vd/F [2, 9]: 1.98 L
AUC(0-inf) [2, 9]: 36000 ng·h/mL
AUC(0-t) [2, 9]: 35800 ng·h/mL
Cmax ([2]; male, Wistar, rat, plasma, po, 20 mg/kg, IIREG group: single oral REG 20 mg/kg b.w. alone, median (quartiles), read-out: Cmax): 1880 ng/mL
Tmax [2, 10]: 5 h
Vd/F [2, 10]: 0.51 L
AUC(0-inf) [2, 10]: 163000 ng·h/mL
AUC(0-t) [2, 10]: 163000 ng·h/mL
Cmax ([2]; male, Wistar, rat, plasma, po, 20 mg/kg, IREG+ATO group: single oral REG 20 mg/kg + ATO 20 mg/kg b.w., median (quartiles), read-out: Cmax): 7290 ng/mL
